Reference: US7297797B2, “Pyrrolines” (Bayer CropScience AG, priority 2002, dated 2007)
Read-outs that look alike come from different tables or passages of the source.

Legend:
[1] = log P determination by HPLC on reversed-phase column (EEC Directive 79/831 Annex V.A8); format: physicochemical
Method: The log P values given in the preparation examples and tables above are determined in accordance with EEC Directive 79/831 Annex V.A8 by HPLC (High Performance Liquid Chromatography) on a reversed-phase column (C 18). Temperature: 43° C. In the acidic range, determination is carried out at pH 2.3 using the mobile phases 0.1% aqueous phosphoric acid and acetonitrile; linear gradient from 10% acetonitrile to 90% acetonitrile (in the tables marked with a)). In the neutral range, determination is carried out at pH 7.5 using the mobile phases 0.01 molar aqueous phosphate buffer solution and acetonitrile; linear gradient from 10% acetonitrile to 90% acetonitrile (in the tables marked with b)). Calibration is carried out using unbranched alkan-2-ones (of 3 to 16 carbon atoms) with known lopP values (determination of the log P values by the retention times using linear interpolation between two successive alkanones).

[2] = tested on: caterpillars of the cotton bollworm (Heliothis armigera); assay: Heliothis armigera test; format: in vivo; details: Helicoverpa armigera, 168 h; 100 ppm active compound; soybean shoots (Glycine max) dipped; after 7 d; read-out: Kill rate in % after 7 d
Method: (§1) Heliothis armigera Test • Solvent: 7 parts by weight of dimethylformamide • Emulsifier: 2 parts by weight of alkylaryl polyglycol ether To produce a suitable preparation of active compound, 1 part by weight of active compound is mixed with the stated amounts of solvent and emulsifier, and the concentrate is diluted with emulsifier-containing water to the desired concentration. Soybean shoots (Glycine max) are treated by being dipped into the preparation of active compound of the desired concentration and are populated with caterpillars of the cotton bollworm (Heliothis armigera) while the leaves are still moist. After the desired period of time, the kill in % is determined. 100% means that all caterpillars have been killed; 0% means that none of the caterpillars have been killed. In this test, for example, the following compounds of the preparation examples show good activity: […]

[3] = tested on: larvae of the mustard beetle (Phaedon cochleariae); assay: Phaedon larvae test; format: in vivo; details: 168 h, 100 ppm active compound, cabbage leaves (Brassica oleracea) dipped, after 7 d, read-out: Kill rate in % after 7 d
Method: as §1, with “Phaedon Larvae Test” for “Heliothis armigera Test”, “concentration. Cabbage leaves (Brassica oleracea)” for “concentration. Soybean shoots (Glycine max)”, “with larvae” for “with caterpillars”, “the mustard beetle (Phaedon cochleariae)” for “the cotton bollworm (Heliothis armigera)”, “all beetle larvae” for “all caterpillars”, “the beetle larvae” for “the caterpillars”

[4] = tested on: caterpillars of the diamondback moth (Plutella xylostella); assay: Plutella test; format: in vivo; details: 100 ppm active compound, cabbage leaves (Brassica oleracea) dipped
Method: as §1, with “Plutella” for “Heliothis armigera”, “Cabbage leaves (Brassica oleracea)” for “Soybean shoots (Glycine max)”, “diamondback moth (Plutella xylostella)” for “cotton bollworm (Heliothis armigera)”

[5] = tested on: caterpillars of the army worm (Spodoptera exigua); assay: Spodoptera exigua test; format: in vivo; details: 100 ppm active compound, cabbage leaves (Brassica oleracea) dipped
Method: as §1, with “Spodoptera exigua” for “Heliothis armigera”, “Cabbage leaves (Brassica oleracea)” for “Soybean shoots (Glycine max)”, “army worm (Spodoptera exigua)” for “cotton bollworm (Heliothis armigera)”

[6] = tested on: caterpillars of the army worm (Spodoptera frugiperda); assay: Spodoptera frugiperda test; format: in vivo; details: 168 h, 100 ppm active compound, cabbage leaves (Brassica oleracea) dipped, after 7 d, read-out: Kill rate in % after 7 d
Method: as §1, with “Spodoptera frugiperda” for “Heliothis armigera”, “Cabbage leaves (Brassica oleracea)” for “Soybean shoots (Glycine max)”, “army worm (Spodoptera frugiperda)” for “cotton bollworm (Heliothis armigera)”

[7] = tested on: greenhouse red spider mite (Tetranychus urticae); assay: Tetranychus test (OP-resistant/dip treatment); format: in vivo; details: 168 h, 100 ppm active compound, infested bean plants (Phaseolus vulgaris) dipped, OP-resistant, after 7 d, read-out: Kill rate in % after 7 d
Method: Tetranychus Test (OP-Resistant/Dip Treatment)
• Solvent: 7 parts by weight of dimethylformamide • Emulsifier: 2 parts by weight of alkylaryl polyglycol ether
To produce a suitable preparation of active compound, 1 part by weight of active compound is mixed with the stated amounts of solvent and emulsifier, and the concentrate is diluted with emulsifier-containing water to the desired concentration.
Bean plants (Phaseolus vulgaris) which are heavily infested by all stages of the greenhouse red spider mite (Tetranychus urticae) are treated by being dipped into a preparation of active compound of the desired concentration.
After the desired period of time, the activity in % is determined. 100% means that all spider mites have been killed; 0% means that none of the spider mites have been killed.
In this test, for example, the following compounds of the preparation examples show good efficacy: […]

[8] = reversed-phase C18 HPLC column; acidic range, pH 2.3, 0.1% aqueous phosphoric acid/acetonitrile, 43° C.; marked a) in tables, read-out: log P (pH 2.3)
[9] = reversed-phase C18 HPLC column; neutral range, pH 7.5, 0.01 molar aqueous phosphate buffer/acetonitrile, 43° C.; marked b) in tables, read-out: log P (pH 7.5)

chromatographic logP [1, 8]	chromatographic logP [1, 9]	SMILES	pest or weed control at 100 ppm [2]	pest or weed control at 100 ppm [3]	Kill rate in % after 7 d [4]	Kill rate in after 7 d [5]	pest or weed control at 100 ppm [6]	pest or weed control at 100 ppm [7]
5.43	5.72	Fc1cc(-c2ccc(-c3noc(C(F)(F)F)n3)cc2)ccc1C1CCC(c2c(F)cccc2F)=N1 (stereo not shown) [Example 7]	100%	100%	100%	100%	100%	98%
5.65	5.97	CC(C)(C)c1nc(-c2ccc(-c3ccc(C4CCC(c5c(F)cccc5F)=N4)c(F)c3)cc2)no1 (stereo not shown) [Example 6, 5-tert-butyl-3-{4′-[5-(2,6-difluorophenyl)-3,4-dihydro-2H-pyrrol-2-yl]-3′-fluoro-1,1′-biphenyl-4-yl}-1,2,4-oxadiazole]	100%	100%	100%	100%	100%	98%
